Molecules are shown by their SMILES.

The first series concerns Hartley guinea pigs. The series is described as follows: Learned helplessness test. The class given is in vivo, guinea pig. The note with it: antidepressant/antianxiety activity. From the text:
The utility of the compounds for example to treat depression may be shown via a learned helplessness test in guinea pigs, which is used extensively as correlative to antidepressant activity in humans. The learned helplessness test may be carried out as follows: Seventy male Hartley guinea pigs, each weighing about 350-425 gm are fed ad lib, and are housed under a 12-hour light/dark cycle. The procedure consists of two phases: The induction phase and the avoidance training phase. In the induction phase, subjects are placed into standard shuttle cages (20 L×16 W×21 centimeters H) which are fitted with a grid floor. Electrical stimulation (1.25 mA, 10 sec duration) is delivered to the floor of the cage every 90-sec during 1 hour daily sessions. Subjects have no opportunity to escape or to avoid shocks. Induction is conducted for 2 consecutive days.
In avoidance training, testing is also conducted in the shuttle cages, except that the subjects are not returned to the same chamber in which induction had occurred. Additionally, all cages are fitted with a partition with an arch in the center of the cage, through which animals can pass between the left and right halves of the cage. The procedure employed is a standard shuttle avoidance procedure in which a compound, conditioned stimulus (a 10-sec presentation of a tone and turning on of a lamp on the side of the cage that the guinea pig was occupying) serves to indicate presentation of electrical current to the floor of the cage. Shock is presented for a 5 sec period, 5 sec after initiation of the conditioned stimulus. Entry into the opposite side of the shuttle cage via the arched partition prior to shock onset results in the end of the trial (avoidance response). If shock is delivered, entry into the opposite side of the cage results in termination of the shock and CS (escape). Reversal of learned helplessness in the induction subjects correlates to antidepressant activity of the test compound.
Avoidance training, 45-min in duration, is conducted on 2 consecutive days, beginning 48 hr after the final induction session. Seventy subjects are assigned to 1 of 6 groups of 11-12 animals. The groups are as follows:
Groups 2-6 are given induction and avoidance training sessions. Injections are administered immediately following induction sessions and 1 hour prior to avoidance training sessions. A second injection is administered 7-8 hours following the first injection, for a total of 9 injections administered over 5 days. No injections are administered following the final avoidance training session.
Compounds of the present invention may be administered in a volume of 1 mL/kg bwt. Imipramine is dissolved in DI water. The compounds are dissolved in DI water, to which was added a few drops of lactic acid (pH 5.5). […]
As for `CCS(=O)(=O)N1CCN(c2ccc(NC(=O)c3cc(=O)c4cc(F)cc(N5CCN(C)CC5)c4o3)cc2)CC1` [Example 71], the “activity in the learned helplessness assay” value (shortened to “activity”) is “demonstrate activity”. On the same count and under the same terms, for `COc1cc(N2CCN(C)CC2)c2oc(C(=O)Nc3ccc(N4CCOCC4)cc3)cc(=O)c2c1` [Example 31, 6-Methoxy-8-(4-methyl-piperazin-1-yl)-4-oxo-4H-chromene-2-carboxylic acid (4-morpholin-4-yl-phenyl)-amide] the value was “demonstrate activity”. On to `CCC(=O)N1CCN(c2ccc(NC(=O)c3cc(=O)c4cc(OC)cc(N5CCN(C)CC5)c4o3)cc2)CC1` [Example 44, 6-Methoxy-8-(4-methyl-piperazin-1-yl)-4-oxo-4H-chromene-2-carboxylic Acid [4-(4-propionyl-piperazin-1-yl)-phenyl]-amide], for which the “activity” value is on record as “demonstrate activity”. On to `CCC(=O)N1CCN(c2ccc(NC(=O)c3cc(=O)c4cc(F)cc(N5CCN(C)CC5)c4o3)cc2)CC1` [Example 72, 6-flouro-8-(4-methyl-piperazin-1-yl)-4-oxo-4H-chromene-2-carboxylic acid [4-(4-propionyl-piperazin-1-yl)-phenyl]-amide], for which the “activity” value is listed as “demonstrate activity”.

Test system in a further series: not given
Test: not given
Conditions: not given
As usually defined, the melting point is the temperature of the solid-liquid transition. Compound `CN1CCN(c2cccc3c2OC(C(=O)Nc2ccc(N4CCOCC4)cc2)CC3=O)CC1` (racemic) [Example 78, racemic-8-(4-methyl-piperazin-1-yl)-4-oxo-chroman-2-carboxylic acid (4-morpholin-4-yl-phenyl)-amide] showed a melting point of 215 to 216 °C. Same read-out and setting: the figure for `CN1CCN(c2cccc3c2OC(C(=O)Nc2ccc(N4CCOCC4)cc2)CC3=O)CC1` (single isomer, unassigned) [Example 80, 8-(4-Methyl-piperazin-1-yl)-4-oxo-chroman-2-carboxylic Acid (4-morpholin-4-yl-phenyl)-amide] is 215 °C (dec.); for `CCS(=O)(=O)N1CCN(c2ccc(NC(=O)c3cc(=O)c4cc(F)cc(N5CCN(C)CC5)c4o3)cc2)CC1` [Example 71] it is 233 to 234 °C. The same measure, in the same setting: the figure for `COc1cc(N2CCN(C)CC2)c2oc(C(=O)Nc3ccc(N4CCOCC4)cc3)cc(=O)c2c1` [Example 31, 6-Methoxy-8-(4-methyl-piperazin-1-yl)-4-oxo-4H-chromene-2-carboxylic acid (4-morpholin-4-yl-phenyl)-amide] is 234 to 236 °C. Same read-out and setting: the figure for `CN1CCN(c2cccc3c(=O)cc(-c4nc5ccc(N6CCOCC6)cc5o4)oc23)CC1` [Example 21, 8-(4-Methyl-piperazin-1-yl)-2-(6-morpholin-4-yl-benzooxazol-2-yl)-chromen-4-one] is 158.1 to 158.8 °C; for `CN1CCN(c2cccc3c2OC(C(=O)Nc2ccc(N4CCOCC4)cc2)CC3)CC1` (racemic) [Example 75, Racemic-8-(4-Methyl-piperazin-1-yl)-chroman-2-carboxylic acid (4-morpholin-4-yl-phenyl)-amide] it is 215 to 216 °C. As to `CN1CCN(c2cccc3c2OC(C(=O)Nc2ccc(N4CCOCC4)cc2)CC3=O)CC1` (single isomer, unassigned) [Example 79, 8-(4-Methyl-piperazin-1-yl)-4-oxo-chroman-2-carboxylic Acid (4-morpholin-4-yl-phenyl)-amide], the melting point is 216 °C (dec.). Same read-out and setting: the figure for `COc1cc(N2CCN(C)CC2)c2oc(C(=O)Nc3ccc(N4CCN(C(=O)CCO)CC4)cc3)cc(=O)c2c1` [Example 68, 6-Methoxy-8-(4-methyl-piperazin-1-yl)-4-oxo-4H-chromene-2-carboxylic Acid {4-[4-(3-hydroxy-propanoyl)-piperazin-1-yl]-phenyl}-amide] is 195 to 197 °C; for `CN1CCN(c2cccc3c(=O)cc(C(=O)Nc4ccc(N5CCOCC5)cc4)oc23)CC1` [Example 1, 8-(4-methyl-1-piperazinyl)-N-[4-(4-morpholinyl)phenyl]-4-oxo-4H-chromene-2-carboxamide] it is 217 to 218 °C (dec.). For `CCNC(=O)N1CCN(c2ccc(NC(=O)c3cc(=O)c4cc(F)cc(N5CCN(C)CC5)c4o3)cc2)CC1` [Example 81, 4-[4-({1-[6-Fluoro-8-(4-methyl-piperazin-1-yl)-4-oxo-4H-chromen-2-yl]-methanoyl}-amino)-phenyl]-piperazine-1-carboxylic Acid Ethylamide], the melting point was 236 to 238 °C. The same measure, in the same setting: for `CN1CCN(c2cccc3c2OC(C(=O)Nc2ccc(N4CCOCC4)cc2)CC3)CC1` (single isomer, unassigned; (+)) [Example 76, (+)-8-(4-Methyl-piperazin-1-yl)-chroman-2-carboxylic Acid (4-morpholin-4-yl-phenyl)-amide] the value was 206 to 207 °C; for `CN1CCN(c2cccc3c2OC(C(=O)Nc2ccc(N4CCOCC4)cc2)CC3)CC1` (single isomer, unassigned; (-)) [Example 77, (−)-8-(4-Methyl-piperazin-1-yl)-chroman-2-carboxylic Acid (4-morpholin-4-yl-phenyl)-amide], 205.5 to 207 °C. Compound `CN1CCN(c2cccc3c(=O)cc(C(=O)Nc4ccc(N5CCOCC5)cc4O)oc23)CC1` [Example 22, 8-(4-Methyl-piperazin-1-yl)-4-oxo-4H-chromene-2-carboxylic Acid (2-hydroxy-4-morpholin-4-yl-phenyl)-amide] gave a melting point of 248.4 to 249.6 °C. Take `CN1CCN(c2cc(F)cc3c(=O)cc(C(=O)Nc4ccc(N5CCN(C(=O)CCO)CC5)cc4)oc23)CC1` [Example 73, 6-Fluoro-8-(4-methyl-piperazin-1-yl)-4-oxo-4H-chromene-2-carboxylic Acid {4-[4-(3-hydroxy-propanoyl)-piperazin-1-yl]-phenyl}-amide]: the melting point is 195 to 199 °C.

The next series addresses 5-HT1B and 5HT1D receptors.
Test: not given
The note with it: saturation studies, guinea pig cortex; 'may result in a measurement of'; read-out: Kd value of [3H]GR125743; cited from earlier work.
As usually defined, the Kd is the equilibrium constant for the complex coming apart. With `COc1ccc(NC(=O)c2ccc(-c3ccncc3)c(C)c2)cc1N1CCN(C)CC1` [[^3H]-GR125743], the dissociation constant Kd was 0.046 ± 0.004 nM.

In another series the test system is 5-HT1B receptors and 5-HT1D receptors. The experiment in a line: Radioligand competition binding with [3H]-GR125743 on membranes of transfected CHO cells.
Conditions: not given
The text has this:
Other assays that may be used to measure for example affinity of compounds of the present invention for 5HT1B and 5HT1D receptors are described in J. Med. Chem 41:1218-1235, 1228 (1998) and J. Med. Chem 42:4981-5001, (1999) and incorporated by reference herein. These assays may be used with some modifications: Frozen membrane preparations of a stably transfected chinese hamster ovary (CHO) cell line expressing 5-HT1B receptors and 5-HT1D receptors are thawed rapidly, briefly vortexed, and diluted in assay buffer (AB) containing 50 mM Tris-HCl, 4 mM MgCl2, 4 mM CaCl2, 1 mM EDTA, and adjusted to pH 7.4 with NaOH. Final protein concentrations are—0.185 mg/ml for 5-HT1B, and 0.4 mg/ml for 5-HT1D membranes. Test compounds are evaluated in competition assays using [^3H]-GR125743 (Amersham). The ligand concentration in both assays was 0.27 nM. […] The 5-HT1B and 5-HT1D assays are performed simultaneously on one 96-well assay plate, one drug/compound per plate. Ten serial dilutions (1 uM to 4 pM, final concentration) of compound are prepared in DMSO from 10 mM stock solutions. Incubation mixtures are prepared in quadruplicate in 96-deep well assay plates (Matrix 1 ml). […] The plates are then counted on a Packard TopCount to determine CPM's per well. Ki values are determined for each test compound utilizing the graphic and analytical software package, GraphPad Prism. […]
A general note: In a radioligand displacement assay an active substance lowers the binding of a labelled ligand.
On to `COc1ccc(NC(=O)c2ccc(-c3ccncc3)c(C)c2)cc1N1CCN(C)CC1` [[^3H]-GR125743], for which the equilibrium dissociation constant (Kd) was in the range of 0.15 to 0.25 nM.

These data come from US20040082591A1, “Therapeutic heterocyclic compounds” (priority 2001, published 2004).
